From patent publication US20050215478A1, “Amino acid sequences capable of facilitating penetration across a biological barrier” (priority 2002, published 2005) come the findings set out here.

No end group written: not given here.

One data set is described as follows: Translocation of ^125I-labeled peptide from mouse intestine loop into blood and organs (Example 1). The data set is classed as in vivo, BALB/c mice. The settings on record: similar experiments; injected into a mouse intestinal loop; fraction of the full conjugate IBW-002. An excerpt: The tested peptide, representing a penetrating peptide and a radio-labeled probe in a contiguous construct of SEQ ID NO 3 and SEQ ID NO 17, hereby named IBW 002 (Novetide, lot 40139-45, sequence: Ac-NYYDITLALAGICQSARLVQQLAGGGKGGK-NH2 (SEQ ID NO:22), was ^125I-labeled using the Bolton Hunter Reagent (Biochem. J. 133:529-39 (1973)). The labeled peptide was loaded on a Sephadex G10 column, washed with phosphate buffer and eluted with 3M Tiocyanate in DDW+50% n-butanol. The peak, containing 6 fractions, was kept and used for in vivo experiments.
Four male BALB/c mice, 9-10 weeks old, were deprived of food, 18 hours prior to the experiment.
The mice were anesthetized by i.p. injection of 0.05 ml of a mixture of 0.15 ml xylazine+0.85 ml of ketamin. A 2 cm long incision was made along the center of the abdomen, through the skin and abdominal wall. An intestine loop was gently pulled out through the incision and placed on wet gauze beside the animal. The loop remained intact through the entire procedure and was kept wet during the whole time. The tested compound was injected into the loop, 0.2 ml/ mouse, containing around 200,000 cpm, using a 26G needle. Fifteen minutes post injection the tip of the tail was cut and a 50 μl blood sample was drawn into a glass capillary. This was repeated 30 and 60 minutes post injection. The animals were subsequently sacrificed. The following organs were removed: epididymal fat, kidneys, liver, lungs and brain. Radioactivity in each organ and in blood samples was counted. A 5 μl sample of the injected solution was counted to determine the total injected cpm per mouse.
The total radioactive labeling injected per mouse was 224,160 cpm. Total cpm in the blood was calculated based on the 50 μl blood sample drawn out at different time points post injection, in the assumption that total blood volume of each mouse is 2 ml.
For “GGKGGK (also: 125I label, site not given here) [SEQ ID NO:17, reference compound]”, the “average amount recovered from the blood and various organs, relative to that obtained with IBW-002” value was “about ⅕”.

The next data set can be described thus: Relative potency of penetrating peptides as tested in mice (Example 3). The data set is classed as in vivo. The note with it: IBW-002 = 100. An excerpt: Relative Potency of Penetrating Peptides as Tested in Mice.
For “AcMNYYDITLALAGICQSARLVQQLAGGGKGGKNH2 (Ac-MNYYDITLALAGICQSARLVQQLAGGGKGGK-NH2) [IBW-002V1]”, the “Relative potency (%)” value is 73%.
As to “AcMRNLTRTSLLLAGLCTAAQMVFVGGGKGGKNh2 (Ac-MRNLTRTSLLLAGLCTAAQMVFVGGGKGGK-NH2) [IBW-005]”, the “Relative potency (%)” value is 51%.
The same measure, in the same setting: with “AcMYDITLALAGICQSARIVQQLAGGKGGKNH2 [IBW-002V3]” the figure was 77%; with “AcMYYDITLALAGICQSARLVQQLAGGGKGGKNH2 (Ac-MYYDITLALAGICQSARLVQQLAGGGKGGK-NH2) [IBW-002V2]”, 80%; with “AcNLPPIVLAVIGICAAVFLLQQYVGGGKGGKNH2 (Ac-NLPPIVLAVIGICAAVFLLQQYVGGGKGGK-NH2) [IBW-003]”, 37%.
As for “AcNYFIVNLALADLCMAAFNAAFNFGGGKGGKNH2 (Ac-NYFIVNLALADLCMAAFNAAFNFGGGKGGK-NH2) [IBW-004]”, the “Relative potency (%)” value was 63%.
Still for that read-out and setting: with “AcNYFLVNLAFAEASMAAFNTVVNFGGKGGKNH2 (Ac-NYFLVNLAFAEASMAAFNTVVNFGGKGGK-NH2) [IBW-007]” the figure was 66%.
Still for that read-out and setting: with “AcNYHDIVLALAGVCQSARLVHQLAGGKGGKNH2 [IBW-006]” the figure was 77%.
